These results are taken from patent US10544136B2, “Modulators of sphingosine phosphate receptors” (The Scripps Research Institute, priority 2008, dated 2020).

SMILES strings stand for the structures. Read-outs that look alike come from different tables or passages of the source.

Assay [1] deals with S1P1 (Homo sapiens (Human), UniProt P21453). The assay is described as follows: S1P1 agonist assay (Ec50 S1P1Ag). It counts as cell-based. The source says: The exact dosage will depend upon the activity of the compound, mode of administration, on the therapy desired, form in which administered, the subject to be treated and the body weight of the subject to be treated, and the preference and experience of the physician or veterinarian in charge. S1P1 agonist bioactivity of the compounds of the invention can be determined by use of an in vitro assay system which measures the activation of S1P1, which can be expressed as EC50 values, as are well known in the art inhibitors of the invention can be determined by the method described in the Examples.
Sequence of S1P1 (P21453 whole entry): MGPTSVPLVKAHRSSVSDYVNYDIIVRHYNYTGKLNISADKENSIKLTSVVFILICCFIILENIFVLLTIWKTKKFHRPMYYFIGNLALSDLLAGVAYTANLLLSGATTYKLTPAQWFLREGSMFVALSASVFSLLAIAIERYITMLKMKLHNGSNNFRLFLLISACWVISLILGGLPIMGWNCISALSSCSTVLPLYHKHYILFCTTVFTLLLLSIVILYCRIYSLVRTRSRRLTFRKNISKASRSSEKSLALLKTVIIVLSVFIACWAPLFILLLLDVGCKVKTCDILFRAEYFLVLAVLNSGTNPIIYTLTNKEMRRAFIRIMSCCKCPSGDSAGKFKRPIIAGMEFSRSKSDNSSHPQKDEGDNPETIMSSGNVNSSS

Assay [2] addresses S1P3 (Homo sapiens (Human), UniProt Q99500). Kind of assay: S1P3 agonist assay (Ec50 S1P3Ag). Format: cell-based. The conditions noted are these: read-out: Ec 50 (S1P3Ag).

Sequence of S1P3 (Q99500 whole entry, species assumed): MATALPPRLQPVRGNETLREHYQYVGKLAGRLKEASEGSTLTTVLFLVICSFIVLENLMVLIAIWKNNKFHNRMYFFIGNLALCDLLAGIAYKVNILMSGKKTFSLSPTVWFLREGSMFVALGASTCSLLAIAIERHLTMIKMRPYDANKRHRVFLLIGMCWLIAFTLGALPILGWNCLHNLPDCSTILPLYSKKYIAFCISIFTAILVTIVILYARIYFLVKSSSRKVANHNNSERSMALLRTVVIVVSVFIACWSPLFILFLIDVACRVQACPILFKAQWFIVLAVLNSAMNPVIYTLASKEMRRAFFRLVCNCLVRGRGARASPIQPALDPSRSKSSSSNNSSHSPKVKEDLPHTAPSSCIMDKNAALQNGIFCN

As for `CCOc1ccc(-c2nc(-c3ccc4c(c3)CCN4)no2)cc1OCC` [Compound 154], the EC50 turned out to be 0.0031 µM in assay [1] and 1.8 µM in assay [2].
The matching figures for `FC(F)(F)c1cc(-c2nc(-c3ccncc3)no2)ccc1-c1ccccc1` [Compound 59]: 0.0108 µM and 5.6 µM.
`CCOc1ccc(-c2nc(-c3ccnc(CO)c3)no2)cc1OCC` [Compound 209]: the EC50 in assay [1] is 0.00014 µM; in assay [2], 0.938 µM.
For `CCCOc1ccc(-c2nc(-c3ccncc3)no2)cc1` [Compound 10], in that order: 0.246 µM and 3.33 µM.
For `CCOc1ccc(-c2nc(-c3cccc(CO)c3C)no2)cc1OCC` [Compound 177], in that order: 0.0008 µM and 0.774 µM.
As to `CCOc1ccc(-c2nc(-c3cccc4c3CCN4C)no2)cc1OCC` [Compound 151], the EC50 in assay [1] stood at 0.0059 µM; in assay [2], 2.4 µM.
Regarding `CCOc1ccc(-c2nc(-c3cncc(C)c3)no2)cc1OCC` [Compound 58], the EC50 was found to be 0.0117 µM in assay [1] and 3.4 µM in assay [2].
`CC(C)Cc1ccc(C(C)c2nc(-c3ccc(S(N)(=O)=O)cc3)no2)cc1` (stereo not shown) [Compound 16]: the EC50 came out at 0.0033 µM in assay [1] and 1.2 µM in assay [2].
Regarding `FC(F)(F)c1ccc(-c2noc(Cc3ccncc3)n2)cc1` [Compound 5], the EC50 in assay [1] (unit μM/uM) turned out to be 4.1 µM; in assay [2] it was 5.1 µM.
As to `CCOc1ccc(-c2nc(-c3ccncc3)no2)cc1OCC` [Compound 35], the EC50 was 0.0037 µM in assay [1] and 0.661 µM in assay [2].
For the compound `FC(F)(F)c1cc(Br)cc(-c2nc(-c3ccncc3)no2)c1` [Compound 106], the EC50 in assay [1] is 0.063 µM; in assay [2], 8 µM.
For `Cc1cnccc1-c1noc(-c2ccc(-c3ccccc3)c(C(F)(F)F)c2)n1` [Compound 60], in that order: 0.001 µM and 0.803 µM.
`CCOc1ccc(-c2nc(-c3ccc(CO)nc3)no2)cc1OCC` [Compound 214]: the EC50 in assay [1] is 0.0159 µM; in assay [2] (unit μM) it was 13.5 µM.
As for `CC(C)Cc1ccc(C(C)c2nc(-c3ccncc3)no2)cc1` (stereo not shown) [Compound 55], the EC50 in assay [1] was found to be 0.113 µM; in assay [2] it was 0.448 µM.
For `CCOc1ccc(-c2nc(-c3cccc(CNCCO)c3C)no2)cc1OCC` [Compound 251], in that order: 0.0034 µM and 0.692 µM.
Turning to `COc1ccc(-c2nc(-c3ccncc3)no2)cc1OC1CCCC1` [Compound 54], the figures for the EC50 in assay [1] and in assay [2] were 0.0716 µM and 0.322 µM, respectively.
Regarding `CCOc1ccc(-c2nc(-c3ccc(CN(C)C)c(C)c3)no2)cc1OCC` [Compound 203], the figures for the EC50 in assay [1] and in assay [2] (unit μM) were 0.0122 µM and 10 µM, respectively.
As to `CCOc1ccc(-c2nc(-c3ccc4[nH]ccc4c3)no2)cc1OCC` [Compound 153], the values for the EC50 in assay [1] and in assay [2] were 0.0069 µM and 2 µM, respectively.
On to `CCOc1ccc(-c2nc(-c3ccc(C)c(C)c3)no2)cc1OCC` [Compound 184], for which the results for the EC50 in assay [1] and in assay [2] were 0.0117 µM and 2 µM, respectively.
For `CCOc1ccc(-c2nc(-c3cccc(CO)c3)no2)cc1OCC` [Compound 187], in that order: 0.007 µM and 1.5 µM.
For `FC(F)(F)c1ccc(-c2noc(-c3ccnc(Cl)c3)n2)cc1` [Compound 7], in that order: 0.27 µM and 0.782 µM.
`FC(F)(F)c1cc(-c2nc(-c3ccncc3)no2)cc(C(F)(F)F)c1` [Compound 104]: the EC50 is 0.264 µM in assay [1] and 3.5 µM in assay [2].
For `Nc1cc(-c2noc(-c3ccc(-c4ccccc4)c(C(F)(F)F)c3)n2)ccn1` [Compound 61], in that order: 0.00078 µM and 1.32 µM.
With `CCOc1ccc(-c2nc(-c3cccc4c3CCC4N3CC[C@@H](O)C3)no2)cc1OCC` (stereo partly shown) [Compound 228], the EC50 was 0.0178 µM in assay [1] and 2.9 µM in assay [2].
For `CCOc1ccc(-c2nc(-c3cccc4c3CCN4)no2)cc1OCC` [Compound 123], in that order: 0.0002 µM and 0.529 µM.
For `CCOc1ccc(-c2nc(-c3ccc(CO)cc3C)no2)cc1OCC` [Compound 201], in that order: 0.0005 µM and 0.716 µM.
As to `CCOc1ccc(-c2nc(-c3ccc(CO)cc3)no2)cc1OCC` [Compound 186], the EC50 in assay [1] was determined as 0.0042 µM; in assay [2], 0.606 µM.
The compound `COc1ccc(-c2nc(-c3ccccc3)no2)cc1` [Compound 8] registered an EC50 in assay [1] (unit μM/uM) of 73 µM.
`CCOc1ccc(-c2ncc(-c3ccncc3)o2)cc1OCC` [Compound 268] displayed an EC50 in assay [1] of 0.0107 µM.
In turn, `CCn1nc(C)cc1-c1nc(-c2ccncc2)no1` [Compound 57] yielded an EC50 in assay [1] of 0.29 µM.
For `Cc1cncc(-c2noc(-c3ccc(-c4ccccc4)c(C(F)(F)F)c3)n2)c1` [Compound 62], the EC50 in assay [1] came to 0.005 µM; in assay [2] (unit μM), 24 µM.
`COc1cc(-c2noc(-c3ccnc(Cl)c3)n2)ccc1C` [Compound 29] came in with an EC50 in assay [1] of 0.576 µM.
On to `CCOc1ccc(-c2nc(-c3cccc(CN4CCCC4)c3C)no2)cc1OCC` [Compound 152], for which the figures for the EC50 in assay [1] and in assay [2] were 0.006 µM and 2.1 µM, respectively.
In assay [1], `CCOc1ccc(-c2nc(-c3ccc4cc[nH]c4c3)no2)cc1OCC` [Compound 124] displayed an EC50 of 0.003 µM.
In turn, `CCOc1ccc(-c2nnc(-c3ccncc3)o2)cc1OCC` [Compound 89] yielded an EC50 in assay [1] of 0.224 µM.
Same read-out and setting: the same measure for `COc1cc(-c2noc(Cc3ccncc3)n2)ccc1C` [Compound 42]: 0.909 µM; for `CCCCc1ccc(-c2nc(-c3ccncc3)no2)cc1` [Compound 51]: 0.847 µM; for `CCOc1ccc(-c2nc(-c3ccc4c(c3)NC(=O)C4)no2)cc1OCC` [Compound 155]: 0.0017 µM.
On the same count and under the same terms, the same measure for `CCOc1ccc(-c2nc(-c3ccc(Br)c(C)c3)no2)cc1OCC` [Compound 185]: 0.245 µM.
In turn, `CCOc1ccc(-c2nc(-c3cccc4[nH]cc(CNCCN(C)C)c34)no2)cc1OCC` [Compound 222] came in with an EC50 in assay [1] of 0.284 µM.
Same read-out and setting: the same measure for `CCOc1ccc(-c2nc(-c3ccc4[nH]cc(CNCCN(C)C)c4c3)no2)cc1OCC` [Compound 238]: 0.686 µM; for `CC(C)Oc1ccc(-c2nc(-c3cccc4c3CCC4NCCO)no2)cc1C(F)(F)F` (stereo not shown) [Compound 263, 2-(4-(5-(4-isopropoxy-3-(trifluoromethyl)phenyl)-1,2,4-oxadiazol-3-yl)-2,3-dihydro-1H-inden-1-ylamino)ethanol]: 0.01 µM; for `CCOc1cccc(-c2nc(-c3ccncc3)no2)c1` [Compound 38]: 0.938 µM.
Still for that read-out and setting: the same measure for `CC(C)Oc1ccc(-c2ncc(-c3cccc4c3CCC4NCCO)o2)cc1C#N` (stereo not shown) [Compound 271]: less than 0.0005 µM.
The same measure, in the same setting: the figure for `CCOc1ccc(-c2nnc(-c3ccncc3)[nH]2)cc1OCC` [Compound 93] is 2.8 µM.
As for `Cc1cc(-c2noc(-c3ccc(C)c(C(F)(F)F)c3)n2)ccn1` [Compound 70], in assay [1] (unit μM/uM), the EC50 was 7.08 µM.
In assay [1], `CC(C)Oc1ccc(-c2nc(-c3cccc4c3CCC4O)no2)cc1C(F)(F)F` (stereo not shown) [Compound 259, 4-(5-(4-isopropoxy-3-(trifluoromethyl)phenyl)-1,2,4-oxadiazol-3-yl)-2,3-dihydro-1H-inden-1-ol] came in with an EC50 of less than 0.0005 µM.
`COc1cc(-c2noc(-c3ccc(C#N)c(C)c3)n2)ccc1C` [Compound 46] returned an EC50 in assay [1] of 0.544 µM.
Same read-out and setting: the same measure for `COc1cc(-c2noc(-c3ccnnc3)n2)ccc1C` [Compound 41]: 7.7 µM; for `CCOc1ccc(-c2nc(-c3cccc(C)c3C)no2)cc1OCC` [Compound 166]: 0.0125 µM.
Same read-out and setting: the figure for `COc1cc(OC)c(-c2nc(-c3ccncc3)no2)cc1OC` [Compound 11] is 6.5 µM.
`Nc1cc(-c2nc(-c3ccc(S(N)(=O)=O)cc3)no2)ccn1` [Compound 18] registered an EC50 in assay [1] of 0.397 µM.
As to `CCOc1ccc(-c2nc(-c3cccc4[nH]cc(CN5CC[C@H](O)C5)c34)no2)cc1OCC` [Compound 230], the EC50 in assay [1] was determined as 0.3 µM.
In the case of `CCOc1ccc(-c2nc(-c3cccc4c3CCC4N3CC[C@@H](O)C3)no2)cc1OCC` (stereo partly shown) [Compound 250], the EC50 in assay [1] was found to be 0.0061 µM.
On the same count and under the same terms, the figure for `CCOc1ccc(-c2nc(-c3cccc(N)c3C)no2)cc1OCC` [Compound 165] is 0.0294 µM; for `CCOc1ccc(-c2nc(-c3cncc(CO)c3)no2)cc1OCC` [Compound 225] it is 0.0245 µM.
The compound `CCOc1ccc(-c2nc(-c3ccc4occc4c3)no2)cc1OCC` [Compound 253] came in with an EC50 in assay [1] of 0.0266 µM.
Turning to `COc1cc(-c2noc(-c3cc(C)nc(Cl)c3)n2)ccc1C` [Compound 28], the EC50 in assay [1] was 0.477 µM.
Same read-out and setting: the same measure for `COc1cc(-c2noc(-c3cc(CC(C)C)no3)n2)ccc1C` [Compound 30]: 1.39 µM; for `CCOc1ccc(-c2nc(-c3ccc(CN4CCCC4)cc3)no2)cc1OCC` [Compound 80]: 0.0865 µM.
As to `CCOc1ccc(-c2nc(-c3cc4ccccc4cn3)no2)cc1OCC` [Compound 208], the EC50 in assay [1] came out at 0.154 µM.
Consider `CCOc1ccc(-c2nc(-c3ccnc(C(=O)NCCO)c3)no2)cc1OCC` [Compound 242], for which the EC50 in assay [1] was found to be 0.0265 µM.
On the same count and under the same terms, the figure for `CCOc1ccc(-c2nc(-c3ccc4[nH]cc(CN(C)CCO)c4c3)no2)cc1OCC` [Compound 240] is 3.1 µM; for `CCOc1ccc(-c2nc(-c3ccc(CN4CCCC4)c(C)c3)no2)cc1OCC` [Compound 202] it is 0.0358 µM.
Regarding `CCOc1cccc(-c2nc(-c3cccnc3)no2)c1` [Compound 67], the EC50 in assay [1] (unit μM/uM) amounted to 95.5 µM.
As for `COc1cc(-c2nc(-c3ccncc3)no2)ccc1C` [Compound 39], in assay [1], the EC50 came out at 0.418 µM.
In assay [1] (unit μM/uM), `Fc1cc(-c2nc(-c3ccc(C(F)(F)F)cc3)no2)ccn1` [Compound 6] returned an EC50 of 4.1 µM.
Consider `NS(=O)(=O)c1ccc(-c2noc(-c3cc(Cl)nc(Cl)c3)n2)cc1` [Compound 22], for which the EC50 in assay [1] is 1.03 µM.
